Test results taken from patent publication US20230085307A1, “PYRIDAZINONE COMPOUND AND HERBICIDE” (NISSAN CHEMICAL CORPORATION, priority 2019, published 2023).

Experiments:
southern crabgrass [1] = assay: Test Example 4: herbicidal effect by soil treatment (Table 19, symbol F); type: in vivo, southern crabgrass (Digitaria ciliaris); details: amount of applied herbicide 320 g/ha
Method in brief: (§1)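 Pre-emergence style soil spray: seeds under ~1.5 cm sterilized diluvial soil received a uniform coat of emulsion diluted to the predetermined herbicide amount. Greenhouse 25–30° C; readout at week three on previously defined criteria.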

green foxtail [2] = assay: Test Example 4: herbicidal effect by soil treatment (Table 19, symbol G); type: in vivo, green foxtail (Setaria viridis); details: amount of applied herbicide 320 g/ha
Method in brief: as §1

barnyard grass [3] = assay: Test Example 4: herbicidal effect by soil treatment (Table 19, symbol H); type: in vivo, barnyard grass (Echinochloa crus-galli); details: amount of applied herbicide 320 g/ha
Method in brief: as §1

wild oat [4] = assay: Test Example 4: herbicidal effect by soil treatment (Table 19, symbol I); type: in vivo, wild oat (Avena fatua); details: amount of applied herbicide 320 g/ha
Method in brief: as §1

blackgrass [5] = assay: Test Example 4: herbicidal effect by soil treatment (Table 19, symbol J); type: in vivo, blackgrass (Alopecurus myosuroides); details: amount of applied herbicide 320 g/ha
Method in brief: as §1

Italian ryegrass [6] = assay: Test Example 4: herbicidal effect by soil treatment (Table 19, symbol K); type: in vivo, Italian ryegrass (Lolium multiflorum); details: amount of applied herbicide 320 g/ha
Method in brief: as §1

windgrass [7] = assay: Test Example 4: herbicidal effect by soil treatment (Table 19, symbol L); type: in vivo, windgrass (Apera spica-venti); details: amount of applied herbicide 320 g/ha
Method in brief: as §1

velvetleaf [8] = assay: Test Example 4: herbicidal effect by soil treatment (Table 19, symbol M); type: in vivo, velvetleaf (Abutilon theophrasti); details: amount of applied herbicide 320 g/ha
Method in brief: as §1

redroot pigweed [9] = assay: Test Example 4: herbicidal effect by soil treatment (Table 19, symbol N); type: in vivo, redroot pigweed (Amaranthus retroflexus); details: amount of applied herbicide 320 g/ha
Method in brief: as §1

lambsquarters [10] = assay: Test Example 4: herbicidal effect by soil treatment (Table 19, symbol O); type: in vivo, lambsquarters (Chenopodium album); details: amount of applied herbicide 320 g/ha
Method in brief: as §1

chickweed [11] = assay: Test Example 4: herbicidal effect by soil treatment (Table 19, symbol P); type: in vivo, common chickweed (Stellaria media); details: amount of applied herbicide 320 g/ha
Method in brief: as §1

persian speedwell [12] = assay: Test Example 4: herbicidal effect by soil treatment (Table 19, symbol R); type: in vivo, Persian speedwell (Veronica persica); details: amount of applied herbicide 320 g/ha
Method in brief: as §1

southern crabgrass [13] = assay: Test Example 5: herbicidal effect by foliage application, plastic box (Table 20, symbol F); type: in vivo, southern crabgrass (Digitaria ciliaris); details: 320 g/ha, evaluated three weeks after application
Method in brief: (§2)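 Plants were sown into sterilized diluvial soil under about 1.5 cm cover and kept in a greenhouse at 25° C. to 30° C. Fourteen days on, foliage received an even spray of the diluted emulsion. Herbicidal or crop effect was judged three weeks afterwards.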

green foxtail [14] = assay: Test Example 5: herbicidal effect by foliage application, plastic box (Table 20, symbol G); type: in vivo, green foxtail (Setaria viridis); details: 320 g/ha, evaluated three weeks after application
Method in brief: as §2

barnyard grass [15] = assay: Test Example 5: herbicidal effect by foliage application, plastic box (Table 20, symbol H); type: in vivo, barnyard grass (Echinochloa crus-galli); details: 320 g/ha, evaluated three weeks after application
Method in brief: as §2

wild oat [16] = assay: Test Example 5: herbicidal effect by foliage application, plastic box (Table 20, symbol I); type: in vivo, wild oat (Avena fatua); details: 320 g/ha, evaluated three weeks after application
Method in brief: as §2

blackgrass [17] = assay: Test Example 5: herbicidal effect by foliage application, plastic box (Table 20, symbol J); type: in vivo, blackgrass (Alopecurus myosuroides); details: 320 g/ha, evaluated three weeks after application
Method in brief: as §2

Italian ryegrass [18] = assay: Test Example 5: herbicidal effect by foliage application, plastic box (Table 20, symbol K); type: in vivo, Italian ryegrass (Lolium multiflorum); details: 320 g/ha, evaluated three weeks after application
Method in brief: as §2

windgrass [19] = assay: Test Example 5: herbicidal effect by foliage application, plastic box (Table 20, symbol L); type: in vivo, windgrass (Apera spica-venti); details: foliage application, 320 g/ha, evaluated three weeks after application
Method in brief: as §2

velvetleaf [20] = assay: Test Example 5: herbicidal effect by foliage application, plastic box (Table 20, symbol M); type: in vivo, velvetleaf (Abutilon theophrasti); details: 320 g/ha, evaluated three weeks after application
Method in brief: as §2

redroot pigweed [21] = assay: Test Example 5: herbicidal effect by foliage application, plastic box (Table 20, symbol N); type: in vivo, redroot pigweed (Amaranthus retroflexus); details: 320 g/ha, evaluated three weeks after application
Method in brief: as §2

lambsquarters [22] = assay: Test Example 5: herbicidal effect by foliage application, plastic box (Table 20, symbol O); type: in vivo, lambsquarters (Chenopodium album); details: 320 g/ha, evaluated three weeks after application
Method in brief: as §2

chickweed [23] = assay: Test Example 5: herbicidal effect by foliage application, plastic box (Table 20, symbol P); type: in vivo, common chickweed (Stellaria media); details: 320 g/ha, evaluated three weeks after application
Method in brief: as §2

persian speedwell [24] = assay: Test Example 5: herbicidal effect by foliage application, plastic box (Table 20, symbol R); type: in vivo, Persian speedwell (Veronica persica); details: 320 g/ha, evaluated three weeks after application
Method in brief: as §2

barnyard grass [25] = assay: Test Example 3: herbicidal effect by foliage application, Wagner pot (Table 18, symbol H); type: in vivo, barnyard grass (Echinochloa crus-galli); details: 320 g/ha
Method in brief: (§3)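 Plants were sown in alluvial soil held under 0.1–0.5 cm standing water and grown 14 days in a greenhouse at 25–30 °C. An emulsifiable formulation, water-diluted to the set dose, was then sprayed onto the foliage, and effects were scored three weeks later using previously defined criteria.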

Chinese sprangletop = assay: Test Example 3: herbicidal effect by foliage application, Wagner pot (Table 18, symbol D); type: in vivo, chinese sprangletop (Leptochloa chinensis); details: 320 g/ha
Method in brief: as §3

rice flat sedge = assay: Test Example 3: herbicidal effect by foliage application, Wagner pot (Table 18, symbol E); type: in vivo, rice flat sedge (Cyperus iria); details: 320 g/ha
Method in brief: as §3

[26] = foliage application after 14-day growth

## COc1ccc(-c2sc3ccc(C)cc3c2-c2c(O)c(C)nn(C)c2=O)cc1 [2-140]
Southern crabgrass [1]
  F: southern crabgrass, herbicidal effect rating: 0 (Herbicidal rate of 5% or less (almost no effect))
Green foxtail [2]
  G: green foxtail, herbicidal effect rating: 0 (Herbicidal rate of 5% or less (almost no effect))
Barnyard grass [3]
  H: barnyard grass, herbicidal effect rating: 0 (Herbicidal rate of 5% or less (almost no effect))
Wild oat [4]
  I: wild oat, herbicidal effect rating: 0 (Herbicidal rate of 5% or less (almost no effect))
Blackgrass [5]
  J: blackgrass, herbicidal effect rating: 0 (Herbicidal rate of 5% or less (almost no effect))
Italian ryegrass [6]
  K: Italian ryegrass, herbicidal effect rating: 0 (Herbicidal rate of 5% or less (almost no effect))
Windgrass [7]
  L: windgrass, herbicidal effect rating: 0 (Herbicidal rate of 5% or less (almost no effect))
Velvetleaf [8]
  M: velvetleaf, herbicidal effect rating: 3 (Herbicidal rate of 40% or more and less than 70%)
Redroot pigweed [9]
  N: redroot pigweed, herbicidal effect rating: 2 (Herbicidal rate of 20% or more and less than 40%)
Lambsquarters [10]
  O: lambsquarters, herbicidal effect rating: 0 (Herbicidal rate of 5% or less (almost no effect))
Chickweed [11]
  P: chickweed, herbicidal effect rating: 0 (Herbicidal rate of 5% or less (almost no effect))
Persian speedwell [12]
  R: persian speedwell, herbicidal effect rating: 3 (Herbicidal rate of 40% or more and less than 70%)
Southern crabgrass [13]; foliage application
  herbicidal effect on F: southern crabgrass: 0 (Herbicidal rate of 5% or less (almost no effect))
Green foxtail [14]; foliage application
  herbicidal effect on G: green foxtail: 0 (Herbicidal rate of 5% or less (almost no effect))
Barnyard grass [15]; foliage application
  herbicidal effect on H: barnyard grass: 0 (Herbicidal rate of 5% or less (almost no effect))
Wild oat [16]; foliage application
  herbicidal effect on I: wild oat: 0 (Herbicidal rate of 5% or less (almost no effect))
Blackgrass [17]; foliage application
  herbicidal effect on J: blackgrass: 0 (Herbicidal rate of 5% or less (almost no effect))
Italian ryegrass [18]; foliage application
  herbicidal effect on K: Italian ryegrass: 0 (Herbicidal rate of 5% or less (almost no effect))
Windgrass [19]
  herbicidal effect on L: windgrass: 0 (Herbicidal rate of 5% or less (almost no effect))
Velvetleaf [20]; foliage application
  herbicidal effect on M: velvetleaf: 4 (Herbicidal rate of 70% or more and less than 90%)
Redroot pigweed [21]; foliage application
  herbicidal effect on N: redroot pigweed: 3 (Herbicidal rate of 40% or more and less than 70%)
Lambsquarters [22]; foliage application
  herbicidal effect on O: lambsquarters: 3 (Herbicidal rate of 40% or more and less than 70%)
Chickweed [23]; foliage application
  herbicidal effect on P: chickweed: 4 (Herbicidal rate of 70% or more and less than 90%)
Persian speedwell [24]; foliage application
  herbicidal effect on R: persian speedwell: 5 (Herbicidal rate of 90% or more (almost completely withered))

## Cc1nn(C)c(=O)c(-c2c(-c3ccc(Cl)cc3)sc3c(F)cccc23)c1O [4-040]
Barnyard grass [25]
  herbicidal effect on barnyard grass (H): 5 (Herbicidal rate of 90% or more (almost completely withered))
Chinese sprangletop
  herbicidal effect on Chinese sprangletop (D): 4 (Herbicidal rate of 70% or more and less than 90%)
Rice flat sedge
  herbicidal effect on rice flat sedge (E): 5 (Herbicidal rate of 90% or more (almost completely withered))
Southern crabgrass [1]
  Herbicidal effect by soil treatment, F: southern crabgrass: 0 (Herbicidal rate of 5% or less (almost no effect))
Green foxtail [2]
  Herbicidal effect by soil treatment, G: green foxtail: 0 (Herbicidal rate of 5% or less (almost no effect))
Barnyard grass [3]
  Herbicidal effect by soil treatment, H: barnyard grass: 0 (Herbicidal rate of 5% or less (almost no effect))
Wild oat [4]
  Herbicidal effect by soil treatment, I: wild oat: 0 (Herbicidal rate of 5% or less (almost no effect))
Blackgrass [5]
  Herbicidal effect by soil treatment, J: blackgrass: 0 (Herbicidal rate of 5% or less (almost no effect))
Italian ryegrass [6]
  Herbicidal effect by soil treatment, K: Italian ryegrass: 2 (Herbicidal rate of 20% or more and less than 40%)
Windgrass [7]
  Herbicidal effect by soil treatment, L: windgrass: 0 (Herbicidal rate of 5% or less (almost no effect))
Velvetleaf [8]
  Herbicidal effect by soil treatment, M: velvetleaf: 0 (Herbicidal rate of 5% or less (almost no effect))
Redroot pigweed [9]
  Herbicidal effect by soil treatment, N: redroot pigweed: 3 (Herbicidal rate of 40% or more and less than 70%)
Lambsquarters [10]
  Herbicidal effect by soil treatment, O: lambsquarters: 3 (Herbicidal rate of 40% or more and less than 70%)
Chickweed [11]
  Herbicidal effect by soil treatment, P: chickweed: 1 (Herbicidal rate of 5% or more and less than 20%)
Persian speedwell [12]
  Herbicidal effect by soil treatment, R: persian speedwell: 4 (Herbicidal rate of 70% or more and less than 90%)
Southern crabgrass [13]; [26]
  herbicidal effect on F: southern crabgrass (evaluation grade 0-5): 0 (Herbicidal rate of 5% or less (almost no effect))
Green foxtail [14]; [26]
  herbicidal effect on G: green foxtail (evaluation grade 0-5): 4 (Herbicidal rate of 70% or more and less than 90%)
Barnyard grass [15]; [26]
  herbicidal effect on H: barnyard grass (evaluation grade 0-5): 3 (Herbicidal rate of 40% or more and less than 70%)
Wild oat [16]; [26]
  herbicidal effect on I: wild oat (evaluation grade 0-5): 0 (Herbicidal rate of 5% or less (almost no effect))
Blackgrass [17]; [26]
  herbicidal effect on J: blackgrass (evaluation grade 0-5): 3 (Herbicidal rate of 40% or more and less than 70%)
Italian ryegrass [18]; [26]
  herbicidal effect on K: Italian ryegrass (evaluation grade 0-5): 4 (Herbicidal rate of 70% or more and less than 90%)
Velvetleaf [20]; [26]
  herbicidal effect on M: velvetleaf (evaluation grade 0-5): 4 (Herbicidal rate of 70% or more and less than 90%)
Redroot pigweed [21]; [26]
  herbicidal effect on N: redroot pigweed (evaluation grade 0-5): 5 (Herbicidal rate of 90% or more (almost completely withered))
Lambsquarters [22]; [26]
  herbicidal effect on O: lambsquarters (evaluation grade 0-5): 3 (Herbicidal rate of 40% or more and less than 70%)
Chickweed [23]; [26]
  herbicidal effect on P: chickweed (evaluation grade 0-5): 5 (Herbicidal rate of 90% or more (almost completely withered))
Persian speedwell [24]; [26]
  herbicidal effect on R: persian speedwell (evaluation grade 0-5): 5 (Herbicidal rate of 90% or more (almost completely withered))
